# In patent US7968563B2, “Oxime and hydroxylamine substituted imidazo[4,5-c] ring compounds and methods” (3M Innovative Properties Company, priority 2005, dated 2011):
# Where a name gives a salt, the structure may show the parent alone.
row,melting point [°C],Compound
1,255 to 257,"CONCc1nc2c(N)nc3ccccc3c2n1CC(C)(C)O (as salt: hydrochloride) [Example 16, 1-(2-Hydroxy-2-methylpropyl)-2-{[methoxylamino]methyl}-1H-imidazo[4,5-c]quinolin-4-amine; hydrochloride]"
2,190 to 193,"CONCc1nc2c(N)nc3cc(OCc4ccccc4)ccc3c2n1CC1CCOCC1 [Example 6, 7-(Benzyloxy)-2-[(methoxyamino)methyl]-1-(tetrahydro-2H-pyran-4-ylmethyl)-1H-imidazo[4,5-c]quinolin-4-amine]"
3,159 to 161,"CON(C)Cc1nc2c(N)nc3cc(OCc4ccccc4)ccc3c2n1CC1CCOCC1 [Example 7, 7-(Benzyloxy)-2-{[methoxy(methyl)amino]methyl}-1-(tetrahydro-2H-pyran-4-ylmethyl)-1H-imidazo[4,5-c]quinolin-4-amine]"
4,178 to 181,"CONCc1nc2c(N)nc3ccccc3c2n1CC1(O)CCC1 [Example 12, 1-({4-Amino-2-[(methoxyamino)methyl]-1H-imidazo[4,5-c]quinolin-1-yl}methyl)cyclobutanol]"
5,58 to 63,"CONCc1nc2cnc3ccccc3c2n1CC1CCOCC1 [Example 17, 2-[(Methoxyamino)methyl]-1-(tetrahydro-2H-pyran-4-ylmethyl)-1H-imidazo[4,5-c]quinoline]"
6,169 to 171,"CONCc1nc2c(N)nc3ccccc3c2n1CC1CCOCC1 [Example 19, 2-[(Methoxyamino)methyl]-1-(tetrahydro-2H-pyran-4-ylmethyl)-1H-imidazo[4,5-c]quinolin-4-amine]"
7,223 to 226,"CON(C)Cc1nc2c(N)nc3ccccc3c2n1CC1CCOCC1 [Example 20, 2-{[Methoxy(methyl)amino]methyl}-1-(tetrahydro-2H-pyran-4-ylmethyl)-1H-imidazo[4,5-c]quinolin-4-amine]"

# The next lines start with the compound.
row,Compound,melting point [°C]
1,"CON=Cc1nc2c(N)nc3ccccc3c2n1CC(C)C [Example 4, 4-Amino-1-(2-methylpropyl)-1H-imidazo[4,5-c]quinoline-2-carbaldehyde O-methyloxime]",181 to 183
2,"CON=C(C)CCc1nc2c(N)nc3ccccc3c2n1CC(C)(C)O [Example 5, 4-[4-Amino-1-(2-hydroxy-2-methylpropyl)-1H-imidazo[4,5-c]quinolin-2-yl]butan-2-one O-methyloxime]",182 to 184
3,"CON(Cc1nc2c(N)nc3cc(OCc4ccccc4)ccc3c2n1CC1CCOCC1)S(C)(=O)=O [Example 8, N-{[4-Amino-7-(benzyloxy)-1-(tetrahydro-2H-pyran-4-ylmethyl)-1H-imidazo[4,5-c]quinolin-2-yl]methyl}-N-methoxymethanesulfonamide]",195 to 197
4,"CONCc1nc2c(N)nc(C)c(C)c2n1CC(C)C [Example 9, 1-Isobutyl-2-[(methoxyamino)methyl]-6,7-dimethyl-1H-imidazo[4,5-c]pyridin-4-amine]",154 to 156
5,"CON(C)Cc1nc2c(N)nc(C)c(C)c2n1CC(C)C [Example 10, 1-Isobutyl-2-{[methoxy(methyl)amino]methyl}-6,7-dimethyl-1H-imidazo[4,5-c]pyridin-4-amine]",132 to 134
6,"CON(Cc1nc2c(N)nc(C)c(C)c2n1CC(C)C)C(=O)C1CC1 [Example 11, N-[(4-Amino-1-isobutyl-6,7-dimethyl-1H-imidazo[4,5-c]pyridin-2-yl)methyl]-N-methoxycyclopropanecarboxamide]",135 to 137
7,"CON(C)Cc1nc2c(N)nc3ccccc3c2n1CC1(O)CCC1 [Example 13, 1-[(4-Amino-2-{[methoxy(methyl)amino]methyl}-1H-imidazo[4,5-c]quinolin-1-yl)methyl]cyclobutanol]",219 to 221
8,"CO/N=C/c1nc2c(N)nc(C)c(C)c2n1CC(C)C [Example 14, 4-Amino-1-isobutyl-6,7-dimethyl-1H-imidazo[4,5-c]pyridine-2-carbaldehyde O-methyloxime]",179 to 181
9,"CON(C)Cc1nc2c(N)nc3ccccc3c2n1CC(C)(C)O [Example 15, 1-(2-Hydroxy-2-methylpropyl)-2-{[methoxy(methyl)amino]methyl}-1H-imidazo[4,5-c]quinolin-4-amine]",220 to 222
10,"CON(C)Cc1nc2cnc3ccccc3c2n1CC1CCOCC1 [Example 18, 2-{[Methoxy(methyl)amino]methyl}-1-(tetrahydro-2H-pyran-4-ylmethyl)-1H-imidazo[4,5-c]quinoline]",142 to 144
